Data: US20120003661A1, “METHODS AND DEVICES FOR THE SELECTIVE DETECTION OF MICROORGANISMS” (C3 JIAN, INC., priority 2010, published 2012)
Entries after “also recorded” stand apart in the source; their conditions may differ. Where two headings read alike, the source gives them in different places.

Test system: bacteria, fungi, and/or yeasts
Type: binding
[1] = microorganism(s) the targeting peptide binds, as listed in Table 2
[2] = microorganism(s) listed as target(s) of the targeting peptide, wrapped target lists given cell by cell
[3] = microorganism(s) that the targeting peptide binds, as listed in Table 2

Substance | Target(s) [1] | Target(s) [2] | other results
1T-100 (LDPLEPRIAPPGDRSHQGAPACHRDPLRGRSARDAER) | S. gordonii, S. mitis, S. mutans |  | 
1T-95 (GHLLRVGGRVGGVGGVAGACAQPFGGQ) | S. gordonii, S. mitis, S. mutans,; also recorded: S. oralis, S. sanguinis |  | 
1T-22 (VPLDDGTRRPEVARNRDKDRED) | S. epidermidis, P. aeruginosa |  | 
1T-264 (LEGKFYMAEDFDKTPECFKDYV) |  | S. sanguinis | 
PF-133 (GDPTAGQKPVECP) |  | S. epidermidis, C. jeikeium, C. jejuni,; also recorded: M. smegmatis | 
1T-145 (VEAGKRNISLENIEKISKGLGISISELFKYIEEGEDKIG) | S. mitis, S. mutans, S. oralis |  | 
1T-219 (RNINVSATFITEKSLV) | S. sanguinis |  | 
PF-068 (SHLINNFGLSVINPSTPICLNFSPVFNLLTVYGITCN) |  | S. epidermidis, M. luteus, P. mirabilis,; also recorded: E. coli, P. aeruginosa,; also recorded: C. albicans, MRSA, S. pneumoniae,; also recorded: E. faecalis, C. jeikeium | 
1T-237 (EDPVPNHFTLRRNKKEKPSKS) | S. sanguinis |  | 
PF-069 (FDPVPLKKDKSASKHSHKHNH) |  | E. faecalis, C. jejuni | 
1T-276 (ILTLLILGSIGFFILKIKLKLGRF) |  | A. naeslundii, F. nucleatum, P. gingivalis,; also recorded: S. epidermidis, S. gordonii,; also recorded: gordonii, S. mitis, S. mutans, S. oralis,; also recorded: S. sanguinis | 
1T-140 (IKGTIAFVGEDYVEIRVDKGVKLTFRKSAIANVINNNQQ) | A. naeslundii, F. nucleatum, P. gingivalis,; also recorded: S. epidermidis, S. gordonii,; also recorded: S. mitis, S. mutans, S. oralis,; also recorded: S. salivarious, S. sanguinis |  | 
PF-154 (GIKKSKHPSTDDYVVKTTIDSL) |  | S. mutans | 
1T-126 (QGLARPVLRRIPL) | S. gordonii, S. mitis, S. mutans |  | 
1T-64 (QTVHHIHMHVLGQRQMHWPPG) | S. aureus, S. epidermidis, C. jeikeium,; also recorded: C. xerosis, C. striatum,; also recorded: P. aeruginosa |  | 
PF-172 (LTGVRRPWRAPWAGTSGWALR) |  | S. epidermidis, M. luteus, E. coli,; also recorded: P. aeruginosa, MRSA, E. faecalis,; also recorded: C. jejuni | 
PF-156 (LITAEQPATAPIAGK) |  | S. epidermidis, C. jeikeium | 
PF-011 (MFCYYKQHKGDNFSIEEVKNIIADNEMKVN) |  | M. luteus, E. coli, P. aeruginosa,; also recorded: S. pneumoniae, C. jeikeium | 
PF-792 (ALHASGIQAI) |  |  | Target(s) [3]: S. mutans

Substance | Target(s) [1] | Target(s) [2] | other results
PF-144 (RSGQPVGRPSRRAWLR) |  | S. epidermidis, M. luteus, E. coli,; also recorded: C. albicans, MRSA, S. pneumoniae,; also recorded: E. faecalis, C. jeikeium | 
1T-102 (WKRLWPARILAGHSRRRMRWMVVWRYFAAT) | A. naeslundii, F. nucleatum, P. gingivalis,; also recorded: S. epidermidis, S. gordonii,; also recorded: S. mitis, S. mutans, S. oralis,; also recorded: S. salivarious, S. sanguinis |  | 
PF-C271 (FFPSYYSIIITYF) |  |  | Target(s) [3]: A. naeslundii, F. nucleatum, P. gingivalis,; also recorded: S. mutans, T. denticola
PF-050 (SYYLKRREEKGK) |  | S. epidermidis, M. luteus, E. coli,; also recorded: C. jeikeium | 
1T-302 (IIIILPKIYLVCKTV) |  | A. naeslundii, P. gingivalis, S. epidermidis,; also recorded: S. gordonii, S. mitis,; also recorded: S. mutans, S. oralis, S. salivarious,; also recorded: S. sanguinis | 
1T-238 (IFNRRKFFQYFGLSKEAMVEHIQPFILDIWQIHLF) | A. naeslundii, F. nucleatum, P. gingivalis,; also recorded: S. epidermidis, S. gordonii,; also recorded: S. mitis, S. mutans, S. oralis,; also recorded: S. salivarious, S. sanguinis |  | 
PF-053 (KLFGQWGPELGSIYILPALIGSIILIAIVTLILRAMRK) |  | S. epidermidis, M. luteus, E. coli,; also recorded: P. aeruginosa, C. albicans,; also recorded: MRSA, S. pneumoniae, E. faecalis | 
1T-9 (WAWAESPRCVSTRSNIHALAFRVEVAALT) | M. xanthus |  | 
1T-77 (EMRISRIILDFLFLRKK) | S. pneumoniae |  | 
1T-137 (PLNFYRAVKENRLPLSEKNINDFTNIKLKVSPKLINLLQESSIFYNFSPKKRNTN) | A. naeslundii, F. nucleatum, P. gingivalis,; also recorded: S. epidermidis, S. gordonii,; also recorded: S. mitis, S. mutans, S. oralis,; also recorded: S. salivarious, S. sanguinis |  | 
PF-C095 (LLALNMNEDTYYFELFFIFDNQNKKWLIFDLKERG) |  |  | Target(s) [3]: A. naeslundii, F. nucleatum, P. gingivalis,; also recorded: S. mutans
PF-134 (GKAMKRQDCSAL) |  | S. epidermidis, C. jeikeium | 
PF-023 (MTKNTIISLENEKTQINDSENESSDLRKAK) |  | M. luteus, C. jeikeium | 
1T-43 (DRCLSVLSWSPPKVSPLI) | C. jeikium, P. aeruginosa |  | 
1T-55 (NHKTLKEWKAKWGPEAVESWATLLG) | C. xerosis, P. aeruginosa |  | 
1T-32 (VSFLAGWLCLGLAAWRLGNA) | S. mutans |  | 
PF-160 (SFHASLTKNEKPIKSTG) |  | S. epidermidis | 
PF-137 (VLGKGHDLLDVGKTALKSRVFAWLGGS) |  | S. epidermidis, P. mirabilis, S. pneumoniae,; also recorded: C. jeikeium, C. jejuni | 
PF-022 (MINELKNKNSGIMNNYVVTKESKL) |  | M. luteus, P. mirabilis, E. coli, P. aeruginosa,; also recorded: C. albicans, MRSA,; also recorded: S. pneumoniae, E. faecalis, C. jeikeium,; also recorded: C. jejuni | 

Substance | Target(s) [1] | Target(s) [2] | other results
PF-047 (NQEPSLQQDKEQKDNKG) |  | S. mutans | 
PF-S015 (IENLERGARRPP) |  |  | Target(s) [3]: S. epidermidis, MRSA, C. jeikeium
PF-030 (MTCHQAPTTTHQSNMA) |  | yeast and hyphal forms; also recorded: S. epidermidis, M. luteus, P. mirabilis,; also recorded: E. coli, P. aeruginosa,; also recorded: C. albicans, MRSA, S. pneumoniae,; also recorded: E. faecalis, C. jeikeium,; also recorded: C. jejuni | 
PF-025 (LLIIFRLWLELKWKNKK) |  | S. epidermidis, M. luteus, P. mirabilis,; also recorded: E. coli, P. aeruginosa,; also recorded: MRSA, E. faecalis, C. jejuni | 
PF-789 (PRGAQSGHG) |  |  | Target(s) [3]: Mycobacteria spp.
TT-308 (GLVIIPNLIALIILFSQVRQQTKDYFSNPKLSSR) |  | F. nucleatum | 
PF-787 (MTERQRRALLKQHPEVVSWSDYLEKRKRRTGTAG) |  |  | Target(s) [3]: Mycobacteria spp.
PF-C180 (TVEELDKAFTWGAAAALAIGVIAINVGLAAGYCYNNNDVF) |  |  | Target(s) [3]: F. nucleatum, P. gingivalis, S. mutans,; also recorded: T. denticola
PF-C068 (LNLFASI) |  |  | Target(s) [3]: A. naeslundii, F. nucleatum, S. mutans
1T-25 (VGLDVSVLVLFFGLQLLSVLLGAMIR) | S. aureus, S. epidermidis, C. xerosis,; also recorded: C. striatum, P. aeruginosa |  | 
PF-C134 (NELMKYPATLTATATTPGIKYSHLCSVCL) |  |  | Target(s) [3]: A. naeslundii, F. nucleatum, P. gingivalis,; also recorded: S. mutans, T. denticola
PF-104 (ERTAVNDLWI) |  | MRSA, C. jeikeium | 
PF-174 (RGGDSPARRRPGLAGPGGPG) |  | S. epidermidis, P. aeruginosa, C. jeikeium | 
1T-301 (SKLPRVLDASLKL) |  | F. nucleatum, S. gordonii, S. sanguinis | 
1T-112 (SDNDGKLILGTSQ) | S. gordonii |  | 
PF-151 (EEYPARVPLSGEDVTEARRH) |  | S. epidermidis, MRSA, E. faecalis,; also recorded: C. jeikeium | 
1T-8 (FSVAACGEQRAVTFVLLIEDLI) | M. xanthus |  | 
PF-127 (MLRYLSLFAVGLATGYAWGWIDGLAASLAV) |  | S. epidermidis, M. luteus, E. coli,; also recorded: P. aeruginosa, C. albicans,; also recorded: MRSA, S. pneumoniae, E. faecalis | 
TT-309 (EPLPLTKYDKKDTEMKKVFKEILAGKVGYEKEEE) |  | F. nucleatum | 
